Like-named read-outs stand apart in the source and are kept apart here.
Experiments:
Protein-C = assay: Cysteine probe labeling after IMiD pretreatment, PBMC lysates (Table 4); assay type: binding
Protein-B = assay: as above; assay type: binding
CRBN-287 = CRBN-287 (Homo sapiens, UniProt Q96SW2); assay: as above; assay type: binding; set-up: endogenous in cells; host or cells: PBMC lysates; details: read-out: inhibition of cysteine probe labeling, CRBN-287
CRBN-318 = CRBN-318 (Homo sapiens, UniProt Q96SW2); assay: as above; assay type: binding; set-up: endogenous in cells; host or cells: PBMC lysates; details: read-out: inhibition of cysteine probe labeling, CRBN-318
Chain of CRBN-318 (Q96SW2 whole entry): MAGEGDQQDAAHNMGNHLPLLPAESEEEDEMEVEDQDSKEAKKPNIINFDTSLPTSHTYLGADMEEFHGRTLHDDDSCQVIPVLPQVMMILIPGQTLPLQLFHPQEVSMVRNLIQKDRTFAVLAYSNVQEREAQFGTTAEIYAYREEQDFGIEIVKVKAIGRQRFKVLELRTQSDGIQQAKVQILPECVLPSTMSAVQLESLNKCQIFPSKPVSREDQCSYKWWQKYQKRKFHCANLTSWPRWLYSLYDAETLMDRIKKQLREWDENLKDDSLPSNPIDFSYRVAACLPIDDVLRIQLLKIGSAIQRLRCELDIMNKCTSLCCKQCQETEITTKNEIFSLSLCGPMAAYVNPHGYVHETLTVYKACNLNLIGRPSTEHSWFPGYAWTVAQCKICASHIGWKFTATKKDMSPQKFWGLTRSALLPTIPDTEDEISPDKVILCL

Protein-A = details: PBMC lysates
CRBN Cys343 = biological target: T1, CRBN Cys343 (Homo sapiens, UniProt Q96SW2); assay: Inhibition of iodoacetamide probe labeling of CRBN cysteines, cell lysate (Table 3A); assay type: binding; details: 500 micromolar, cell lysate, 1 h
T1 construct: endogenous in cells
T1 sequence (Q96SW2 whole entry): as above
Protocol: (§1) “X@Y” means that x % inhibition of iodoacetamide probe labeling was observed by treatment of cell lysate with the give compound in each row of the table for 1 h at a concentration of y micromolar. There was consistently high inhibition at C318 in addition to C287, which can be attributed to an allosteric inhibition.

CRBN Cys205 = biological target: T2, CRBN Cys205 (Homo sapiens, UniProt Q96SW2); assay: as above; assay type: binding; details: 500 micromolar, cell lysate, 1 h; read-out: % inhibition of iodoacetamide probe labeling, Cys205
T2 construct: endogenous in cells
T2 sequence (Q96SW2 whole entry): as above
Protocol: as §1

CRBN Cys366 = biological target: T3, CRBN Cys366 (Homo sapiens, UniProt Q96SW2); assay: as above; assay type: binding; details: 500 micromolar, cell lysate, 1 h
T3 construct: endogenous in cells
T3 sequence (Q96SW2 whole entry): as above
Protocol: as §1

CRBN Cys188 = biological target: T4, CRBN Cys188 (Homo sapiens, UniProt Q96SW2); assay: as above; assay type: binding; details: 500 micromolar, cell lysate, 1 h
T4 construct: endogenous in cells
T4 sequence (Q96SW2 whole entry): as above
Protocol: as §1

CRBN Cys219 = biological target: T5, CRBN Cys219 (Homo sapiens, UniProt Q96SW2); assay: as above; assay type: binding; details: 500 micromolar, cell lysate, 1 h; read-out: % inhibition of iodoacetamide probe labeling, Cys219
T5 construct: endogenous in cells
T5 sequence (Q96SW2 whole entry): as above
Protocol: as §1

CRBN Cys287 = biological target: T6, CRBN Cys287 (Homo sapiens, UniProt Q96SW2); assay: as above; assay type: binding; details: 500 micromolar, cell lysate, 1 h; read-out: % inhibition of iodoacetamide probe labeling, Cys287
T6 construct: endogenous in cells
T6 sequence (Q96SW2 whole entry): as above
Protocol: as §1

Chain of CRBN-287 (Q96SW2 whole entry): as above

O=C1CCC(N2Cc3c(OCc4ccc(CN5CCOCC5)cc4)cccc3C2=O)C(=O)N1 (stereo not drawn) [CC-220]
inhibition of cysteine probe labeling, Protein-C (Protein-C; 2 μM): 0 | inhibition of cysteine probe labeling, Protein-C (Protein-C; 20 μM): 2 | inhibition of cysteine probe labeling, Protein-C (Protein-C; 50 μM): 0 | inhibition of cysteine probe labeling, Protein-B (Protein-B; 2 μM): 23 | inhibition of cysteine probe labeling, Protein-B (Protein-B; 20 μM): 11 | inhibition of cysteine probe labeling, Protein-B (Protein-B; 50 μM): 17 | inhibition at 2 µM (CRBN-287): 75% | inhibition at 20 µM (CRBN-287): 77% | inhibition at 50 µM (CRBN-287): 81% | inhibition at 2 µM (CRBN-318): 70% | inhibition at 20 µM (CRBN-318): 70% | inhibition at 50 µM (CRBN-318): 72% | inhibition of cysteine probe labeling, Protein-A (Protein-A; 2 μM): 16 | inhibition of cysteine probe labeling, Protein-A (Protein-A; 20 μM): 19 | inhibition of cysteine probe labeling, Protein-A (Protein-A; 50 μM): 13

C=CC(=O)N1CCC(Oc2cc(C(=O)N(C)C)cc(-c3ccccc3OC)c2)CC1 [Example A2]
inhibition at 500 µM (CRBN Cys343): -6% | inhibition at 500 µM (CRBN Cys205): 18% | inhibition at 500 µM (CRBN Cys366): 2% | inhibition at 500 µM (CRBN Cys188): 9% | inhibition at 500 µM (CRBN Cys219): 31% | inhibition at 500 µM (CRBN Cys287): 91%

Nc1cccc2c1C(=O)N(C1CCC(=O)NC1=O)C2=O (stereo not drawn) [Pomalidomide]
inhibition of cysteine probe labeling, Protein-C (Protein-C; 20 μM): 10 | inhibition of cysteine probe labeling, Protein-C (Protein-C; 100 μM): 1 | inhibition of cysteine probe labeling, Protein-C (Protein-C; 500 μM): 10 | inhibition of cysteine probe labeling, Protein-B (Protein-B; 20 μM): 0 | inhibition of cysteine probe labeling, Protein-B (Protein-B; 100 μM): 14 | inhibition of cysteine probe labeling, Protein-B (Protein-B; 500 μM): 0 | inhibition at 100 µM (CRBN-287): 70% | inhibition at 500 µM (CRBN-287): 75% | inhibition at 20 µM (CRBN-318): 59% | inhibition of cysteine probe labeling, Protein-A (Protein-A; 20 μM): 8 | inhibition of cysteine probe labeling, Protein-A (Protein-A; 100 μM): 10 | inhibition of cysteine probe labeling, Protein-A (Protein-A; 500 μM): 13

From patent US20220298213A1, “IN VIVO ENGINEERED CEREBLON PROTEIN” (Vividion Therapeutics, Inc., priority 2018, published 2022)
